Key:
[1] = target: RAC-beta serine/threonine-protein kinase (Homo sapiens) (UniProt P31751); assay: Selectivity interaction (Kinase panel (Z-LYTE Assay)) EUB0001632a AKT2; conditions: at 10 µM
[2] = target: Ribosomal protein S6 kinase alpha-2 (Homo sapiens) (UniProt Q15349); assay: Selectivity interaction (KinomeScan (DiscoverX)) EUB0000607a RPS6KA2; conditions: at 10 µM
[3] = target: eIF-2-alpha kinase GCN2 (Homo sapiens) (UniProt Q9P2K8); assay: Selectivity interaction (ActivX KiNativ screen (kinase selectivity in THP-1 cell lysates)) EUB0000639a EIF2AK4; format: subcellular; conditions: lysate, at 5 µM
eIF-2-alpha kinase GCN2 (Homo sapiens), sequence (Q9P2K8 whole entry): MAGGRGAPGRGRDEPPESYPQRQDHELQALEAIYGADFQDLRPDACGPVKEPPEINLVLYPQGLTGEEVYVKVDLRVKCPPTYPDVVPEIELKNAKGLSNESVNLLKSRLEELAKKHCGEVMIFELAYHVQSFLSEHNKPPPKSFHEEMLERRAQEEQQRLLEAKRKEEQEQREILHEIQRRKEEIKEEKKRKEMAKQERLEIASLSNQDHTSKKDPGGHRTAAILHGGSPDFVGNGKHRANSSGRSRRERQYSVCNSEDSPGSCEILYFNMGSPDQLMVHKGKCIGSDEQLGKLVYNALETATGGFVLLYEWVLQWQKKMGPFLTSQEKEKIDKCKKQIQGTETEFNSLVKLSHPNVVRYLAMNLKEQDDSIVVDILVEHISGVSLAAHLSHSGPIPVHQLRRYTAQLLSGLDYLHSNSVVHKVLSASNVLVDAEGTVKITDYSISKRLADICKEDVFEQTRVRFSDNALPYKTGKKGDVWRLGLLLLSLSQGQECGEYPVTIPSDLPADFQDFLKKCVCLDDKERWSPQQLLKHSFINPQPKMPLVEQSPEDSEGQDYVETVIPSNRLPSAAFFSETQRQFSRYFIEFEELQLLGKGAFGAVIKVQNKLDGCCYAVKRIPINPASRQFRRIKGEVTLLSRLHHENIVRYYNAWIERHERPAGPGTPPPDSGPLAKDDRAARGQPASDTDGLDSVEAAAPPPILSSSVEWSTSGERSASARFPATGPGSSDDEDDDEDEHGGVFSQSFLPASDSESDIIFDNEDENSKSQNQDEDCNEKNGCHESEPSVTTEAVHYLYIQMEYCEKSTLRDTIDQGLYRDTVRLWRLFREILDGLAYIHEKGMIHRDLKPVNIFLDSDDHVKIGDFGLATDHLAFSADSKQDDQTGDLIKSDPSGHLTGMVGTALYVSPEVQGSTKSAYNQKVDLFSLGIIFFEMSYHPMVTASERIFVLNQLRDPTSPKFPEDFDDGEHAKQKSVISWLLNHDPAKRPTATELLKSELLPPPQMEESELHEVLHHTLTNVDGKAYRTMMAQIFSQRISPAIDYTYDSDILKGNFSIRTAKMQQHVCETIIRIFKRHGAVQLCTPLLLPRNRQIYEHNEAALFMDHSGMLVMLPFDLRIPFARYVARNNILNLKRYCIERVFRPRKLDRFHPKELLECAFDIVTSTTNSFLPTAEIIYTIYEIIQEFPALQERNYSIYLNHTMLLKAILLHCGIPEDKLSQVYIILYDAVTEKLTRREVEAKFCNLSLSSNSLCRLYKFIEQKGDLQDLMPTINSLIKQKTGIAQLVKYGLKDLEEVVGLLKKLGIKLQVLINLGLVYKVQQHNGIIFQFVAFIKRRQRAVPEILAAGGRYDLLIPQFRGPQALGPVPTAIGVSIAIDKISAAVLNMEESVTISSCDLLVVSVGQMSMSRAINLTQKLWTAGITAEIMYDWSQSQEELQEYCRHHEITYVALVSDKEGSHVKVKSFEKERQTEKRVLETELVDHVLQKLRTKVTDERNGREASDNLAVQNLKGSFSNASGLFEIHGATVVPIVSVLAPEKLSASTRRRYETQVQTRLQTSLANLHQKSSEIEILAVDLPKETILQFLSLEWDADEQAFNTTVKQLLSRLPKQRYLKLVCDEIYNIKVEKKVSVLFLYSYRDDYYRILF

[4] = target: Serine/threonine-protein kinase MARK2 (Homo sapiens) (UniProt Q7KZI7); assay: Selectivity interaction (ActivX KiNativ screen (kinase selectivity in THP-1 cell lysates)) EUB0000639a MARK2; format: subcellular; conditions: lysate, at 1 µM
Serine/threonine-protein kinase MARK2 (Homo sapiens), sequence (Q7KZI7 whole entry): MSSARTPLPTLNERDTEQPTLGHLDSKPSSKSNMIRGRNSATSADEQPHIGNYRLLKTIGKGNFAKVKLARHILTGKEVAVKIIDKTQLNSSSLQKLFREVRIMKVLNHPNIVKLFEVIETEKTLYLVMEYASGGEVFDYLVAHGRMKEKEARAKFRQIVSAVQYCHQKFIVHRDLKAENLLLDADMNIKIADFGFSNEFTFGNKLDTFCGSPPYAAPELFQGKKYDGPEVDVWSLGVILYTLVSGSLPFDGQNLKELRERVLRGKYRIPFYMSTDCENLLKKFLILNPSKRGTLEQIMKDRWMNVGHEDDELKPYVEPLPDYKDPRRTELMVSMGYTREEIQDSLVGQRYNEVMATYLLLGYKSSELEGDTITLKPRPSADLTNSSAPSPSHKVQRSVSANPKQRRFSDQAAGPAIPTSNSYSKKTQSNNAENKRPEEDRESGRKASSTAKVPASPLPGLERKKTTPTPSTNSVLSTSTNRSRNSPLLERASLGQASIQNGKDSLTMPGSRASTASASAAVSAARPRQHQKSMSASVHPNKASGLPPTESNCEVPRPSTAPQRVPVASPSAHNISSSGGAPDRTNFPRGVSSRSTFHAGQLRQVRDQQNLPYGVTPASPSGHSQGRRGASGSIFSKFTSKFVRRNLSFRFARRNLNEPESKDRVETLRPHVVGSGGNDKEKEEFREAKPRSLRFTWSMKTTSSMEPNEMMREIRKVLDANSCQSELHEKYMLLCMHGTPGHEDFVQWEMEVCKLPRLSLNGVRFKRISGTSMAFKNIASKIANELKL

[5] = test system: T1, Receptor-type tyrosine-protein kinase FLT3 (Homo sapiens), P36888 [N841I]; assay: Selectivity interaction (KinomeScan (DiscoverX)) EUB0000695a FLT3; conditions: at 100 nM
T1 sequence (whole entry): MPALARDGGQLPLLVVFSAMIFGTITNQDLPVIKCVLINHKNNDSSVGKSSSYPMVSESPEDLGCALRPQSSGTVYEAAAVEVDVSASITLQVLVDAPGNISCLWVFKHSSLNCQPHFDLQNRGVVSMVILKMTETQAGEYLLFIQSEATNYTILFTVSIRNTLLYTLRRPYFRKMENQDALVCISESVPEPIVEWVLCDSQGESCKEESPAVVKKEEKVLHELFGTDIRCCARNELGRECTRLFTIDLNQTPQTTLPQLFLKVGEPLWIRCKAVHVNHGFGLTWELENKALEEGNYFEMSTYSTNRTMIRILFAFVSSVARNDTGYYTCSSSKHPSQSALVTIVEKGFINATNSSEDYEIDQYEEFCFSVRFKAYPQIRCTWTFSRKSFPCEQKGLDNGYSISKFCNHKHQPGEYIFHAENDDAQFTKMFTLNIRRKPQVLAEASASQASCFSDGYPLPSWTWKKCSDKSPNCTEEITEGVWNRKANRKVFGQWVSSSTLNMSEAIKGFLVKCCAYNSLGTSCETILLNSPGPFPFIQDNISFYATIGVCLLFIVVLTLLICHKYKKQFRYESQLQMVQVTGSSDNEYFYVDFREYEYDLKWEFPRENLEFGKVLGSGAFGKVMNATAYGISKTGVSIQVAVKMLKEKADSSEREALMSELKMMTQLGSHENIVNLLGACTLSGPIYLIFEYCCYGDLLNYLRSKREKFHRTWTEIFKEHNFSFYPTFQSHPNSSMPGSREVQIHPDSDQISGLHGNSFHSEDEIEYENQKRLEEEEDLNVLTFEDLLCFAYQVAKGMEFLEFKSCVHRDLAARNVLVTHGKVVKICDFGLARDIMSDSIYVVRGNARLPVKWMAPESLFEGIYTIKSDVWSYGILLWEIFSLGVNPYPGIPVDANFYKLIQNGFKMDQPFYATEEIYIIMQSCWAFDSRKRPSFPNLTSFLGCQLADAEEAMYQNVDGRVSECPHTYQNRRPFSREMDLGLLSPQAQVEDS

[6] = target: T2, Mitogen-activated protein kinase kinase kinase 13 (Homo sapiens) (UniProt O43283); assay: Selectivity interaction (KinomeScan (DiscoverX)) EUB0000595a MAP3K13; conditions: at 10 µM
T2 sequence (whole entry): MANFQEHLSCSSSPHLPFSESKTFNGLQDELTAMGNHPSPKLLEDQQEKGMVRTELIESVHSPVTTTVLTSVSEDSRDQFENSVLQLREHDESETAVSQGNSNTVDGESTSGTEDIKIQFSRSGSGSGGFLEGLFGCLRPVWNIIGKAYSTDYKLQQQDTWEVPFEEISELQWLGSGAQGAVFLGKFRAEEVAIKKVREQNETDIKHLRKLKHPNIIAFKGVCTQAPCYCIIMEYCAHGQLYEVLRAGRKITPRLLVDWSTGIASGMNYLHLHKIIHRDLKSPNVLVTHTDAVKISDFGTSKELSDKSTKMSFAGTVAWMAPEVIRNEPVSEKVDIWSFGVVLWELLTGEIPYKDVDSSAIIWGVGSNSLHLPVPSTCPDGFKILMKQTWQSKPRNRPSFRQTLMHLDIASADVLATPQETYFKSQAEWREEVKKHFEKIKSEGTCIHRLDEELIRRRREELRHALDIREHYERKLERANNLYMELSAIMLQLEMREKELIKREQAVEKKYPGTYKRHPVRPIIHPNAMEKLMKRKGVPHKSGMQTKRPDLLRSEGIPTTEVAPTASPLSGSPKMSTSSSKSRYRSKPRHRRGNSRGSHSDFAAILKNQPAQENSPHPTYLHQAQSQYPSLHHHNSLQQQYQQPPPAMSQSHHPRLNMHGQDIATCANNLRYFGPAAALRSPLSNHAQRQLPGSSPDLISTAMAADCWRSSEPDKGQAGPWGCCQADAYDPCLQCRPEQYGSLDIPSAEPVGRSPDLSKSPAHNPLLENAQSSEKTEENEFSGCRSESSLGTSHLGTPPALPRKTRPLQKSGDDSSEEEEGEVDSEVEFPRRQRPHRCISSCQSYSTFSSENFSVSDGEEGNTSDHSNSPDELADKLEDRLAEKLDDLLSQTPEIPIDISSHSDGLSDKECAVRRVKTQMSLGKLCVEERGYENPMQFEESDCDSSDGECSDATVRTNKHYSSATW

[7] = target: 5-hydroxytryptamine receptor 1B (Homo sapiens) (UniProt P28222); assay: Selectivity interaction (Panel of kinases, GPCRs, ion channels and transporters (enzymatic assay)) EUB0000223bCl HTR1B
5-hydroxytryptamine receptor 1B (Homo sapiens), sequence (P28222 whole entry): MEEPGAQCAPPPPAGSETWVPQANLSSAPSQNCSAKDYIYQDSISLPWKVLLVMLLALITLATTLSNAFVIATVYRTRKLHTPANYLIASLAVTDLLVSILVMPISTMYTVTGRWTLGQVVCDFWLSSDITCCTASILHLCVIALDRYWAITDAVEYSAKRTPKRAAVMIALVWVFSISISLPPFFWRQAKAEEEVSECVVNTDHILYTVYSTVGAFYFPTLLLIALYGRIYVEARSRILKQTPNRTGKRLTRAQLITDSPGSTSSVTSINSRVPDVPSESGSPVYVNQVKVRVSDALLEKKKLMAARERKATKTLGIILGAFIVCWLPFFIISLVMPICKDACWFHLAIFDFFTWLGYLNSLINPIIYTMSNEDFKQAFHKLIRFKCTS

[8] = target: Non-receptor tyrosine-protein kinase TYK2 (Homo sapiens, UniProt P29597); assay: Selectivity interaction (KinomeScan (DiscoverX)) EUB0000045b TYK2; conditions: at 1 µM
Non-receptor tyrosine-protein kinase TYK2, sequence (P29597 whole entry): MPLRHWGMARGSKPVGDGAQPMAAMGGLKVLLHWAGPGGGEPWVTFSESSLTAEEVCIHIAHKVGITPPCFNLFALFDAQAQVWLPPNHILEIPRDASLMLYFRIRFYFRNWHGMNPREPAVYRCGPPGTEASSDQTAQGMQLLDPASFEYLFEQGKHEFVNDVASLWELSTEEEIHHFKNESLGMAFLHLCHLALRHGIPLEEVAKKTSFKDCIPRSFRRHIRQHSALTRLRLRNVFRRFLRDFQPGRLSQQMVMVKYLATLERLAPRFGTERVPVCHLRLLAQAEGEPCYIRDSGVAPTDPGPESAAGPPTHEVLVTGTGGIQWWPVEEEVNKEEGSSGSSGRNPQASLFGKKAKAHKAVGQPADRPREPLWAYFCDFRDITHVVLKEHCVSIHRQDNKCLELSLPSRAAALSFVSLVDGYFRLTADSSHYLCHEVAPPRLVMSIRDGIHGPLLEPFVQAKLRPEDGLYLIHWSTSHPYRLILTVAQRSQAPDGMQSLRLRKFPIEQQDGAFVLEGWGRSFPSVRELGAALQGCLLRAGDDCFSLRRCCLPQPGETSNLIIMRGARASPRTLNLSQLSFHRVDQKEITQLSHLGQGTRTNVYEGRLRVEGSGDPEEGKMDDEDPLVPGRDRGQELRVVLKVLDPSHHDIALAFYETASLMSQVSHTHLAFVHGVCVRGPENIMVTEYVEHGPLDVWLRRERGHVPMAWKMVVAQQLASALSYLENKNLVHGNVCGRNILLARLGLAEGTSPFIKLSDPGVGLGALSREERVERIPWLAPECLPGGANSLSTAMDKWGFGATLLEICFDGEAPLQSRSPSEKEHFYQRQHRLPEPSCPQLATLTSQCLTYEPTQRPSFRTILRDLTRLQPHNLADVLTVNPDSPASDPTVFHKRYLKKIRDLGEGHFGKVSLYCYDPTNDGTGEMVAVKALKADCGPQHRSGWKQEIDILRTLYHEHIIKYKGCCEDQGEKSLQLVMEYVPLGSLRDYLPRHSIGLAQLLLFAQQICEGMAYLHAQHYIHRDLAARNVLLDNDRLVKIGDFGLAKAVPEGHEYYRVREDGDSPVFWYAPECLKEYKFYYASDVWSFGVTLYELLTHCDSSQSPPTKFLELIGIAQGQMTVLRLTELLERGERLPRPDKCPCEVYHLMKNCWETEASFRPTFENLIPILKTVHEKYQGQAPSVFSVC

[9] = target: Serine/threonine-protein kinase VRK2 (Homo sapiens) (UniProt Q86Y07); assay: Selectivity interaction (KinomeScan (DiscoverX)) EUB0001079a VRK2; conditions: at 1 µM
[10] = target: T3, Serine/threonine-protein kinase 17B (Homo sapiens) (UniProt O94768); assay: Selectivity interaction (KinomeScan (DiscoverX)) EUB0000092b STK17B; conditions: at 10 µM
T3 sequence (whole entry): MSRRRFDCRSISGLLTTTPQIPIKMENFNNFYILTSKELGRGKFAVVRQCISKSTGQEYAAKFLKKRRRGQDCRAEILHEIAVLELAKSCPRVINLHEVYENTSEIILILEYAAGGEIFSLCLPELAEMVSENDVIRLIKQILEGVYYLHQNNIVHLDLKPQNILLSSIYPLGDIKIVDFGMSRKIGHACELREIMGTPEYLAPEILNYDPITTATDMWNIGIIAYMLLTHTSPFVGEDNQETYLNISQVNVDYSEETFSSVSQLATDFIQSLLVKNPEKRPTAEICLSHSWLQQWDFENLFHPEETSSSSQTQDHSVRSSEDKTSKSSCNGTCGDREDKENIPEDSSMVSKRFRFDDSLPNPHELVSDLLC

Ribosomal protein S6 kinase alpha-2 (Homo sapiens), sequence (Q15349 whole entry): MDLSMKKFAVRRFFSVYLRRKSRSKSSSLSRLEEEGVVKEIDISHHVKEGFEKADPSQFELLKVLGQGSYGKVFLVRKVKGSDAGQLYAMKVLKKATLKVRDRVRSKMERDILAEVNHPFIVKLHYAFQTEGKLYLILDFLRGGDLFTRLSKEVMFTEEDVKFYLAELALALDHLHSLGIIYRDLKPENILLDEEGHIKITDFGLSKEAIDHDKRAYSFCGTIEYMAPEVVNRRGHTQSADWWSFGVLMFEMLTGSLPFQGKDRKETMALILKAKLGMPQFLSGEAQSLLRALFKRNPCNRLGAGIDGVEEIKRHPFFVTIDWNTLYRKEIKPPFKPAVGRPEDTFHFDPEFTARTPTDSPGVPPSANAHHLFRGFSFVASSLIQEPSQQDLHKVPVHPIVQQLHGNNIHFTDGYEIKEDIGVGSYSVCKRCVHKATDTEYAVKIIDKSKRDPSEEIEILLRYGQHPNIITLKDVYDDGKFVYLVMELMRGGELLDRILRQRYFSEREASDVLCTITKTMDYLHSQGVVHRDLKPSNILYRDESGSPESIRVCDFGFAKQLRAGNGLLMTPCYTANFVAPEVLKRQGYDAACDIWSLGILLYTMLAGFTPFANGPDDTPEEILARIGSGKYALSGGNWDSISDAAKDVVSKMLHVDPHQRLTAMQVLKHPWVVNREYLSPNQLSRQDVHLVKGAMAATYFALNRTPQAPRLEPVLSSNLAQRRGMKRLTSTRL

Cn1cc(-n2cnc3c(NCc4nc5cc(Cl)c(Cl)cc5[nH]4)nc(N4CCOCC4)nc32)cn1
% of control [1]: -2.38%

CNC(=O)Nc1ccc(-c2nc(N3CC4CCC(C3)O4)c3cnn(C4CCC5(CC4)OCCO5)c3n2)cc1
% of control [2]: 100%

CC[C@@H]1[C@H](F)C(=O)N[C@@H]1COc1nccc2cc(C(N)=O)c(OC)cc12 [ZIMLOVISERTIB]
% of inhibition [3]: 19.4% | % of inhibition [4]: 26.6%

Cc1cc(F)c(C(=O)Nc2cccc(-c3nncn3C(C)C)n2)cc1-n1cnc(C2CC2)c1
% of control [5]: 93%

COCC(=O)NC/C=C/c1ccc2ncnc(Nc3ccc(Oc4ccc(C)nc4)c(C)c3)c2c1 [CP-724714]
% of control [6]: 80%

COc1cc(C(=O)N2CC[C@@H](O)[C@@H](N)C2)cc2nc(-c3cc4ccccc4n3CC3CC3)n(C)c12
pXC50 [7]: 4.7 M

C=CC(=O)Nc1cc(-n2c(=O)ccc3cnc4ccc(-c5ccc(NS(C)(=O)=O)cc5)cc4c32)ccc1C
% of control [8]: 80%

Nc1cnc(N2CCc3cc(S(=O)(=O)Nc4c(F)cc(Cl)cc4F)cc(N4CCCC4=O)c32)nc1 [TP-020n]
% of control [9]: 100%

CCC(=O)N1CCN(c2ccc(-n3c(=O)ccc4cnc5ccc(-c6cnc7ccccc7c6)cc5c43)cc2C(F)(F)F)CC1
% of control [10]: 67%
